This note sets out measurements from US9950048B2, “Immunogenic epitopes for immunotherapy” (immatics biotechnologies GmbH, priority 2007, dated 2018).

The subject of series [1] is CD8+ T cells of healthy HLA-A*02+ donors. In words: In vitro priming of CD8+ T cells with pMHC/anti-CD28 coated beads (high density), tetramer analysis. The series is classed as cell-based, human. Conditions: for Immunogenicity detected: at least one well with ≥1% specific tetramer+ among CD8+ T-cells and ≥10× median of negative controls; for Positive donors/donors tested / Positive donors/donors tested (%) / Positive wells/wells tested / Positive wells/wells tested (%): high density beads. Here is the method: To perform in vitro stimulations by artificial antigen presenting cells (aAPC) loaded with peptide-MHC complex (pMHC) and anti-CD28 antibody, first PBMCs (peripheral blood mononuclear cells) were isolated from fresh HLA-A*02+ buffy coats by using standard density gradient separation medium (PAA, Cölbe, Germany). Buffy coats were either obtained from the Blood Bank Tübingen or from the Katharinenhospital Stuttgart. Isolated PBMCs were incubated overnight in T-cell medium (TCM) for human in vitro priming consisting of RPMI-Glutamax (Invitrogen, Karlsruhe, Germany) supplemented with 10% heat inactivated human AB serum (PAA, Cölbe, Germany), 100 U/ml Penicillin/100 μg/ml Streptomycin (Cambrex, Verviers, Belgium), 1 mM sodium pyruvate (CC Pro, Neustadt, Germany) and 20 μg/ml Gentamycin (Cambrex). CD8+ lymphocytes were isolated using the CD8+ MACS positive selection kit (Miltenyi, Bergisch Gladbach, Germany) according to the manufacturer's instructions. Obtained CD8+ T-cells were incubated until use in TCM supplemented with 2.5 ng/ml IL-7 (PromoCell, Heidelberg, Germany) and 10 U/ml IL-2 (Chiron, Munich, Gemany). Generation of pMHC/anti-CD28 coated beads, T-cell stimulations and readout was performed as described before (Walter, S, et al., 2003, J. Immunol., 171, 4974-4978) with minor modifications. Briefly, biotinylated recombinant HLA-A*0201 molecules lacking the transmembrane domain and being biotinylated at the carboxy terminus of the heavy chain were produced following a method described by (Altman, J D, et al., 1996, Science, 274, 94-96). The purified costimulatory mouse IgG2a anti human CD28 Ab 9.3 (Jung, G, Ledbetter, J A, and Muller-Eberhard, H J; 1987, Induction of cytotoxicity in resting human T lymphocytes bound to tumor cells by antibody heteroconjugates, Proc Natl Acad Sci USA, 84, 4611-4615) was chemically biotinylated using Sulfo-N-hydroxysuccinimidobiotin as recommended by the manufacturer (Perbio, Bonn, Germany).
800,000 beads/200 μl were coated in 96-well plates in the presence of 600 ng biotin anti-CD28 plus 200 ng relevant biotin-pMHC (high density beads) or 2 ng relevant plus 200 ng irrelevant (pMHC library) MHC (low density beads). Stimulations were initiated in 96-well plates by conincubating 1×10^6 CD8+ T cells with 2×10^5 washed coated beads in 200 μl TCM supplemented with 5 ng/ml IL-12 (PromoCell) for 3-4 days at 37° C. Half of the medium was then exchanged by fresh TCM supplemented with 80 U/ml IL-2 and incubation was continued for 3-4 days at 37° C. This stimulation cycle was performed for a total of three times. Finally, tetrameric analyses were performed with fluorescent MHC tetramers (produced as described by (Altman, J D, et al., 1996, Science, 274, 94-96)) plus antibody CD8-FITC clone SK1 (BD, Heidelberg, Germany) on a four-color FACSCalibur (BD). Peptide specific cells were calculated as percentage of total CD8+ T cells. Evaluation of tetrameric analysis was performed using the software FCS Express (De Novo Software). In vitro priming of specific tetramer+CD8+ lymphocytes was detected by appropriate gating and by comparison to negative control stimulations.
Peptides of the present invention were tested together with peptides of known in vivo immunogenicity for comparison. The CEA-005 peptide that was optimised for in vitro T-cell induction (Fong, L, et al., 2001, J. Immunol., 166, 4254-4259) served as control.
Results of in vitro immunogenicity experiments conducted by immatics are summarised here. Results shown have been obtained by stimulation of CD8+ cells with high density beads. As different human serum lots may highly affect the immunogenicity results, only assays in which one and the same serum lot was used, were evaluated together.

The nature of series [2]: Particle size/shape measurement and analytical HPLC of reconstituted IMA910 suspension. The series is classed as physicochemical. Conditions: analytical HPLC of suspension. Here is the method:
Particle size distribution and particle shape measurement of the particles obtained after reconstitution have been performed by capturing direct images of each individual particle in the range of 0.25 to 100 μm followed by image analysis.
Furthermore, analytical HPLC was performed for a closer characterization of the obtained suspension.
IMA910 is dissolved in 700 μL sodium hydrogen carbonate (4.2%).

The test system of series [3] is monocyte-depleted PBMCs of one healthy donor. Put plainly: In vitro priming with peptide-pulsed autologous DCs, intracellular IFNγ staining (ICS) read-out. The series is classed as cell-based, human. Here is the method:
FIGS. 7a and 7b depict the in vitro immunogenicity of TGFBI-004 as detected by ICS after five stimulation cycles.
Cells were primed with TGFBI-004-loaded autologous DCs and restimulated repeatedly with autologous PBMCs plus TGFBI-004. For the read-out cells were incubated with relevant TGFBI-004 (Well 1, 2, 3 and 4) and irrelevant (Neg. Control) peptide, respectively. Additionally to the intracellular IFNγ staining, cells were also stained with CD4-FITC and OCD8-PerCP antibodies. The analysis was performed on a four-color FACSCalibur cytometer (BD Biosciences, Germany).
(§1) Priming and expansion of specific human CD4+ and CD8+ cells were assayed in vitro by priming of monocyte-depleted PBMCs with autologous DCs and restimulation with autologous PBMCs. […] As a read-out system, IFNγ production upon short term restimulation was assessed by ELISPOT and flow cytometry. T cells were analysed after […] stimulations by ELISPOT and intracellular IFNγ staining plus CD4-FITC and CD8-PerCP to determine the percentage of IFNγ-producing cells in specific T-cell subpopulations. In this experiment, cells stimulated with TGFBI-004 peptide from different wells were pooled, incubated with irrelevant peptide for the read-out and performed as negative controls. […]
(§2) To generate CD4+ T cells, 3 Million PBMCs/PBLs were stimulated with 2×10^5 autologuous DCs. […] After being washed with DC medium, cell number was determined. […]

Series [4] shares this test system. Put plainly: In vitro priming with peptide-pulsed autologous DCs, IFNγ ELISPOT read-out. It is filed as cell-based, human. Here is the method: FIG. 6 depicts the in vitro immunogenicity of TGFBI-004 as detected by IFNγ ELISPOT after five stimulation cycles.
Cells were primed and restimulated repeatedly with TGFBI-004 and then incubated with relevant TGFBI-004 (Well 1, 2, 3 and 4) and irrelevant (Neg. control) peptide, respectively. The analysis after IFNγ ELISPOT was performed on an ELISPOT Reader (CTL, Cleveland, USA). PHA-Ionomycin served as positive control. Numbers indicate the count of positive spots.
as §1, §2

Ends that are not written are not given here.

For the substance “KLTDIQIEL (listed as Homo sapiens) [JAK-001]”, the Immunogenicity detected result in series [1] is “yes”.
Regarding KLMDLDVEQL [PCN-001], in series [1], the Immunogenicity detected entry is on record as “yes”, the Positive donors/donors tested was 3/4, the “Positive donors/donors tested (%)” value is given as “(75%)” and the Positive wells/wells tested is listed as 4/42. Also, in series [1], the “Positive wells/wells tested (%)” value is “(10%)”.
In the case of “ALTTLMHQL (listed as Homo sapiens) [PTP-001]”, in series [1], the Immunogenicity detected entry is “yes”.
Turning to “CCN-001: 9 amino acid peptide in vaccine IMA910, supplied as chloride salt (LLGATCMFV; also: chloride salt) [reference compound]”, in series [1], the Immunogenicity detected result was “yes”, the Positive donors/donors tested is listed as 5/5, the “Positive donors/donors tested (%)” value is given as “(100%)” and the Positive wells/wells tested was 42/54. Moreover, the “Positive wells/wells tested (%)” value in series [1] was “(78%)”. The “amount of peptide found in the particles” value in series [2] was “low amounts”.
For “SLWAGVVVL (listed as Homo sapiens) [CHI-001]”, the Immunogenicity detected result in series [1] is given as “yes”.
Take KIFDEILVNA [TOP-001]: in series [1], the Immunogenicity detected result is “yes”, the Positive donors/donors tested is reported as 2/5, the “Positive donors/donors tested (%)” value is on record as “(40%)” and the Positive wells/wells tested is on record as 7/72. Besides, the “Positive wells/wells tested (%)” value in series [1] was “(10%)”. Further, in series [2], the “amount of peptide found in the particles” value was “low amounts”.
“TPPIDAHTRNLLRNH (listed as Homo sapiens) [TGFBI-004]”: the “T-cell lines with specific IFNγ producing CD4+ and/or CD8+ cells via ICS” value in series [3] was 3 out of 4. The “induction of CD4+ and CD8+ T cell responses” value in series [4] (one donor tested, autologous system) was “able to elicit CD4+ and CD8+ T cell responses”. In series [4] (one healthy donor, IFNγ ELISPOT), the “T-cell lines with T-cell responses detected via ELISPOT” value is reported as 2 out of 4.
With ALSNLEVTL [Peptide C20-001], in series [1], the Immunogenicity detected entry is listed as “yes”, the Positive donors/donors tested is 1/5, the “Positive donors/donors tested (%)” value is listed as “(20%)” and the Positive wells/wells tested is reported as 1/60. The “Positive wells/wells tested (%)” value in series [1] is listed as “(2%)”.
